Source: patent publication US5380759A, “Methyl N-[6-(3,4,5-trimethoxybenzloxy)imidazo[1,2-b]pyridazin-2-zyl]carbamate used to treat leukemia” (priority 1987, dated 1995)

Experiments:
[1] = test system: tubulin; experiment: Turbidimetric assay of tubulin polymerisation; assay type: biochemical, horse; settings: 37° C., increase in A350nm 10 min after lag phase; read-out: Total tubulin polymerisation IC50
Procedure: A) Tubulin Polymerisation Assay
1. Preparation of tubulin
All manipulations are performed at 4° C. unless otherwise specified. The horse brain is washed in ice-cold BBG buffer and superficial meninges and blood vessels removed. After weighing, cerebral cortices are chopped, homogenised in 75 ml BBG buffer/100 g brain, centrifuged at 6500 g for 15 min and after removal of […], re-centrifuged at 100,000 g for 75 min. The volume of the supernatant (Vml) is measured and V/10 ml 10 mM GTP (Li salt) in H2 O added. The mixture is incubated in sealed centrifuge tubes (30 min, 34° C.) in a shaking water bath to polymerise the tubulin. After polymerisation the tubes are balanced and centrifuged at 100,000 g, (1 h at 27° C.) in a pre-warmed rotor. The high-speed pellet is resuspended in V/4 ml BB buffer and the preparation stirred on ice for 30 min and centrifuged at 100,000 g (1 h at 4° C.) to remove the cold-stable microtubules. An equal volume of BB2G buffer is added to the supernatant which is frozen rapidly in 5 ml samples in plastic weighing dishes floated on a solid CO2 /ethanol slurry, and stored overnight at -80° C. After ca. 18 hours the frozen samples of tubulin are thawed, 10 mM GTP in H2 O added to give a final concentration of 1 mM, and the new volume (Wml), is measured. The polymerisation/depolymerisation cycle is repeated exactly as above but substituting W for V to give twice-cycled tubulin.
2. Turbidimetric Assay of Tubulin Polymerisation
Apparatus: recording spectrophotometer with a 6-position, thermostatted cuvette holder; full scale deflection=0.2 absorbance units.
In a 1 ml spectrophotometer cuvette are mixed 100 μl 10 mM GTP (Li salt) made up in BB buffer, 10 μl H2 O or DMSO-depending on selected drug solvent, BB buffer and tubulin preparation such that the final increase in A350nm is 0.15 units after 16 mins (approx. 100 μl of tubulin prep. or 2.5 mg protein) in a final volume of 1 ml at 37° C. All reagents are stored on ice.
Polymerisation is initiated by raising the temperature to 37° C. and the increase in A350nm of triplicate samples against a reference cuvette is recorded. The reference sample includes a similar incubation mixture either without tubulin or with the addition of 1 mM Ca^2+. The increase over initial A350nm 10 min after the completion of lag phase (control polymerisation is 80% complete within this time) is calculated and expressed as a percentage of the control value, for a range of drug concentrations. The drug concentration required to give a 50% change (IC50) in the control value is determined.

[2] = test system: P388 D1 cells; experiment: P388 D1 colony-forming assay; assay type: cell-based; settings: Mus musculus, P388D1; 24 h exposure, 14 days colony growth; read-out: IC50 colony formation
Procedure: B) P338D1 Colony-forming Assay
In this assay, cells from an in vitro-adapted line of the mouse lymphoid neoplasm, P388 are first exposed to serially diluted concentrations of test compound over a 24 hour period in culture. Thereafter, the ability of such treated cells to form discrete colonies over a 14 day period after resuspension in a semi-solid drug-free medium is determined.
Initially cells in log growth are plated into individual 25 cm^2 tissue culture flasks each containing a final volume of 5 mls of Hepes buffered RPMI 1640 culture medium supplemented with 10 percent foetal calf serum, antibiotics and test compound. All compounds are formulated initially at appropriate concentrations in DMSO, 25 microliters of which is then added to each flask. All compounds are evaluated at concentrations ranging serially in four fold decrements from a top concentration some four fold greater than that already known to inhibit the proliferation of these cells by about 80 to 90 percent in the primary proliferative assay.
After 24 hrs exposure to the test compound the cells are counted and a known number of live cells transferred to a 15 ml centrifuge tube to which 4 mls of a 0.25 percent low temperature gelling agarose solution in complete RPMI tissue culture medium is then added. After 13 days incubation at 37° C., 1 ml of 1% p-Iodonitrotetrazolium violet is added to the top of each tube and allowed to permeate through the agarose for a further 24 to 48 hrs. This dye is metabolised by living cells to produce an insoluble red crystalline product which facilitates counting of the colonies. Samples are taken from each tube and the number of colonies containing a minimum of 50 cells is determined. The concentration of compound necessary to inhibit colony formation by 50 percent relative to that of control cells incubated under identical conditions but in the absence of the test compound is determined.

[3] = test system: DLD-1 human colon carcinoma cells; experiment: In vitro activity against human tumour cell line DLD-1 (proliferation); assay type: cell-based; settings: DLD-1, 96 h, methylene blue, read-out: IC50
Procedure: (§1) Cells from the human tumour cell lines DLD-1, HCT-116, WiDr and A549 are exposed to serially diluted concentrations of test compounds over a 96 hour period in culture. The ability of such cells to proliferate over the test period is determined.
(§2) Cells in log growth are plated into 96 well multiwell tissue culture dishes in 100 μl/well of RPMI 1640 culture medium supplemented with 10% foetal calf serum, antibiotics and test compound. All compounds are formulated initially at appropriate concentrations in DMSO, the final concentrations in this solvent being twenty times that required in the plate. A final 1 in 10 dilution in complete medium is then made before adding 100 μl to each well of the plate. All compounds are evaluated at concentrations ranging serially in four fold decrements from a top concentration some four fold greater than that already known to inhibit the proliferation of cells from the mouse lymphoid neoplasm, P388D1 by about 80 to 90 percent in a primary proliferative assay.
(§3) After 96 hours the proliferation of cells exposed to test compound is compared with control untreated cells by one of two methods:
a) Culture supernatants are aspirated and cells fixed and stained by adding a solution of methylene blue (5 g per liter of 50% ethanol: water, 100 μl/well). After 30 minutes at room temperature unbound stain is washed off by immersing plates in water. Stained cells are solubilised overnight using 1% Sarkosyl (Sigma) in phosphate-buffered saline (100 μl/well). Absorbances are read by an ELISA plate spectrophotometer at a wavelength of 620 nm. The IC50 is defined as that concentration of drug which decreases absorbance to 50% of that in control (drug-free) cultures. This method is used for the DLD-1 cell line.

[4] = test system: HCT-116 human colon carcinoma cells; experiment: In vitro activity against human tumour cell line HCT-116 (proliferation); assay type: cell-based; settings: HCT-116, 96 h, MTT, read-out: IC50
Procedure: as §1, §2, §3
(§4) b) 20 μl of MTT (5 mg/ml in PBS) is added to each well. After an incubation period of 4 hours the medium from each well is aspirated and replaced with 200 μl DMSO to dissolve the formazan crystals formed. Absorbances are read by an ELISA plate spectrophotometer at a wavelength of 540 nm. The IC50 is defined as that concentration of drug which decreases absorbance to 50% of that in control (drug-free) cultures. This method is used for the WiDr, HCT-116 and A549 cell lines.

[5] = LD20 (Mouse); assay type: in vivo; settings: i.p. days 1, 5 and 9, CD2-F1 mice, observed up to 14 days
[6] = test system: WiDr human colon adenocarcinoma cells; experiment: In vitro activity against human tumour cell line WiDr (proliferation); assay type: cell-based; settings: 96 h, MTT, read-out: IC50
Procedure: as §1, §2, §3, §4

[7] = test system: P388/O tumour; experiment: Lymphocytic leukaemia P388/O test; assay type: in vivo, mouse
Procedure: C. Lymphocytic Leukemia P388/O Test
CD2-F1 mice, of the same sex, weighing within a 3 gram range surrounding 20 g, are used for this test. Control and test animals are injected intraperitoneally with a suspension of 10^6 viable P388/O tumour cells on day 0. In each test several dose levels which bracket the LD20 for the compound are evaluated; each dose level group contains 6 animals. The test compounds are prepared either in physiologic saline containing 0.05% Tween 80 or distilled water containing 5% dextrose and are administered intraperitoneally on days 1,5 and 9 relative to tumour implant. Doses are on a mg/kg basis according to individual animals' body weights. The day of death for each animal is recorded and the median day of death identified for each group. The difference between the median survival time for treated and control groups is expressed as a percentage increase in life span (% ILS).

[8] = test system: A549 human lung carcinoma cells; experiment: In vitro activity against human tumour cell line A549 (proliferation); assay type: cell-based; settings: A549, 96 h, MTT, read-out: IC50
Procedure: as §1, §2, §3, §4

[9] = Mus musculus, P388, ip, 675 mg/kg i.p. days 1, 5 and 9
[10] = Mus musculus, P388, ip, 200 mg/kg i.p. days 1, 5 and 9

## CCOC(=O)Nc1cn2nc(OCc3cc(OC)c(OC)c(OC)c3)ccc2n1 [Example 7, Ethyl N-[6-(3,4,5-trimethoxybenzyloxy)imidazo[1,2-b]pyridazin-2-yl]carbamate]
[1]
  IC50: 520 nM
[2]
  IC50: 6.34 nM
[3]
  IC50: 5.92 nM
[4]
  IC50: 8.25 nM
[5]
  LD50: 15 mg/kg
[6]
  IC50: 19.7 nM
[7]; Mus musculus, P388, ip, 5 mg/kg i.p. days 1, 5 and 9
  ILS at 5 mg/kg: 111%
[8]
  IC50: 22.4 nM

## CCCOC(=O)Nc1cn2nc(OCc3cc(OC)c(OC)c(OC)c3)ccc2n1 [Example 4, n-Propyl N-[6-(3,4,5-trimethoxybenzyloxy)imidazo[1,2-b]pyridazin-2-yl]carbamate]
[1]
  IC50: 370 nM
[2]
  IC50: 5.12 nM
[3]
  IC50: 6.63 nM
[4]
  IC50: 5.45 nM
[5]
  LD50: 20 mg/kg
[6]
  IC50: 11 nM
[7]; Mus musculus, P388, ip, 20 mg/kg i.p. days 1, 5 and 9
  ILS at 20 mg/kg: 44%
[8]
  IC50: 20.8 nM

## CCCCOC(=O)Nc1cn2nc(OCc3cc(OC)c(OC)c(OC)c3)ccc2n1 [Example 5, n-Butyl N-[6-(3,4,5-trimethoxybenzyloxy)imidazo[1,2-b]pyridazin-2-yl]carbamate]
[1]
  IC50: 490 nM
[2]
  IC50: 12.6 nM
[3]
  IC50: 7.34 nM
[4]
  IC50: 3.3 nM
[5]
  LD50: 140 mg/kg
[6]
  IC50: 3.65 nM
[7]; Mus musculus, P388, ip, 150 mg/kg i.p. days 1, 5 and 9
  ILS at 150 mg/kg: 61%
[8]
  IC50: 4.36 nM

## COC(=O)N(C)c1cn2nc(OCc3cc(OC)c(OC)c(OC)c3)ccc2n1 [Example 26, Methyl N-[N-Methyl-6-(3,4,5-trimethoxybenzyloxy)imidazo[1,2-b]pyridazin-2-yl]carbamate]
[5]
  LD50: 450 mg/kg
[7]; Mus musculus, P388, ip, 300 mg/kg i.p. days 1, 5 and 9
  ILS at 300 mg/kg: 263%

## COC(=O)Nc1cn2nc(OCc3cccc(OC)c3OC)ccc2n1 [Example 32, Methyl N-[6-(2,3-dimethoxybenzyloxy)imidazo[1,2-b]pyridazin-2-yl]carbamate]
[5]
  LD50: > 450 mg/kg
[7]; 750 mg/kg i.p. days 1, 5 and 9
  60 Day Survivors: 1/6
[7]; Mus musculus, P388, ip, 750 mg/kg i.p. days 1, 5 and 9
  ILS at 750 mg/kg: 280%

## COC(=O)Nc1cn2nc(OCc3cc(OC)cc(OC)c3)ccc2n1 [Example 11, Methyl N-[6-(3,5-Dimethoxybenzyloxy)imidazo[1,2-b)pyridazin-2-yl]carbamate]
[1]
  IC50: 4240 nM
[2]
  IC50: 41 nM
[5]
  LD50: > 450 mg/kg
[7]; 675 mg/kg i.p. days 1, 5 and 9
  30 Day survivors: 1/6
  60 Day Survivors: 0/6
[7]; [9]
  ILS at 675 mg/kg: 155%

## COC(=O)Nc1cn2nc(OCc3cc(OC)c(OC)c(OC)c3Br)ccc2n1 [Example 31, Methyl N-[6-(2-bromo-3,4,5-trimethoxybenzyloxy)imidazo[1,2-b]pyridazin-2-yl]carbamate]
[5]
  LD50: 165 mg/kg

## COC(=O)Nc1cn2nc(OCc3cccc4ccccc34)ccc2n1 [Example 9, Methyl N-[6-(1-Naphthylmethyloxy)imidazo[1,2-b]pyridazin-2-yl]carbamate]
[1]
  IC50: 890 nM
[5]
  LD50: 450 mg/kg
[7]; [10]
  ILS at 200 mg/kg: 180%

## COC(=O)Nc1cn2nc(OCc3cccc(C)c3)ccc2n1 [Example 12, Methyl N-[6-(3-methylbenzyloxy)imidazo[1,2-b]pyridazin-2-yl]carbamate]
[1]
  IC50: 1210 nM
[5]
  LD50: > 450 mg/kg
[7]; [9]
  ILS at 675 mg/kg: 170%

## CCOc1c(OC)cc(COc2ccc3nc(NC(=O)OC)cn3n2)cc1OC [Example 33, Methyl N-[6-(3,5-dimethoxy-4-ethoxybenzyloxy)imidazo[1,2-b]pyridazin-2-yl]carbamate]
[7]; (Day 51), 200 mg/kg i.p. days 1, 5 and 9
  60 Day Survivors: 3/6
[7]; [10]
  ILS at 200 mg/kg: 240%
